Test results published in patent US20210405025A1, “IDENTIFYING COMPOUNDS FOR TREATING CANCER AND USE THEREOF” (THE UAB RESEARCH FOUNDATION, priority 2018, published 2021).
Counter-ions that a name gives are not always drawn. Like-named read-outs stand apart in the source and are kept apart here.

Tests used:
relapsed AML cells = test: Drug sensitivity assay, 1,536-well, 3-day culture with individual approved drugs at 10 μM, viability by alamarBlue; format: cell-based, human
Procedure, shortened: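 Three-day exposure of primary AML cells to individual drugs in 1,536-well format, viability read as percent live cells. Cells were thawed, cultured overnight, sorted by FACS for viable blasts and plated at 4,000-4,500 cells/5 μL in cytokine-supplemented IMDM/BIT medium.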

AML patient samples = test: 10-point dose-response drug screen of statins against AML patient samples, 3-day drug sensitivity assay; format: cell-based, human; conditions: Homo sapiens, 72 h, 3-day assay
Description: Drug sensitivity assays were performed using a 1,536-well platform where all cells and reagents were deposited in wells using an acoustic liquid handling unit that is highly accurate for dispensing of nanoliter volumes of liquid. […] After dispensing the cells into the wells, an independent drug at a known concentration is added to each well and incubated with the cells. After three days, the percentage of live cells in each well is determined to assess the killing efficiency of each compound. […] Cell viability assays are known to those of skill in the art. See, for example, Pemovska et al., Individualized systems medicine strategy to tailor treatments for patients with chemorefractory acute myeloid leukemia. Cancer Discovery 3:1416-1429, 2013; Pabst et al., Identification of small molecules that support human leukemia stem cell activity ex vivo. Nature Methods 11:436-442, 2014; Baccelli et al., A novel approach for the identification of efficient combination therapies in primary human acute myeloid leukemia specimens. Blood Cancer Journal 7:e529, 2017. In studies described herein, the 1,536-well format was utilized, which allowed for use of four times fewer cells as well as less drug and media components due to the small assay volume of 5 microliters. […] Other compounds like CellTiter-Glo (Promega, Madison, Wis.) are equally appropriate reagents for determining cell viability.
Conditions for the drug screening assays were as described in Pabst et al., Identification of small molecules that support human leukemia stem cell activity ex vivo, Nature Methods 11:436-442, 2014). Using this protocol, cells were cultured in Iscove's Modified Dulbecco's Medium (IMDM), 15% BIT (bovine serum albumin, insulin, transferrin; Stem Cell Technologies 09500 (Vancouver, Calif.)), 100 ng/ml SCF (Shenandoah 100-04 (Warwick, Pa.)), 50 ng/ml FLT3L (Shenandoah 100-21), 20 ng/ml IL-3 (Shenandoah 100-80), 20 ng/ml G-CSF (Shenandoah 100-72), 10^-4 M β-mercaptoethanol, gentamicin (50 μg/ml) and ciprofloxacin (10 μg/ml).
Cells were removed from liquid nitrogen and placed in a 37° C. bath, just until thawed. For 1,536-well screens utilizing 6,000 wells about 100 million cells were thawed. The volume was doubled with pre-warmed culture media and placed on ice for about one to two minutes. The cells were brought to a final volume of about 8 to 10 mL before spinning down at 1,100 rpm for 5 min at 10° C. The pelleted cells were resuspended in 10 mL of culture media and plated in a tissue-culture treated T75 flask at a density of 1 to 2 million cells/ml. The cells were cultured overnight prior to fluorescence-activated cell sorting of viable cells on the following day.
After cells were cultured overnight, a cell scraper was used to remove any cells that adhered to the plastic. The cells were gently pipetted up and down to break up aggregates. Then, the entire volume was transferred to a 50 mL conical tube through a 70 micron cell strainer to remove cell clumps. The T75 flask was rinsed and scraped with about 10 mL HBSS and transferred to the same 50 mL conical tube through the strainer. The harvested cells were spun down at 1,100 rpm for 5 min at 10° C. The cells were then resuspendd in about 300-500 microliters FACS buffer (HBSS+2% FBS+1× propidium iodide) and transferred to a FACS tube. The tube was placed on ice and viable cells that are forward- and side-scatter gated on viable myeloid blasts were sorted by FACS (the scatter gate should exclude small lymphocytes, large myeloid cells, and debris). After sorting the required number of viable cells, the cells were spun down at 1,100 rpm for 5 min at 10° C. and subsequently resuspended at 4,000-4,500 cells per 5 microliter volume of complete culture media with growth factors and penicillin/streptomycin.

[1] = number of relapsed AML cases out of 18 tested with >70% cell death, 10 μM, 3-day culture

| Structure (SMILES) | #Cases >70% cell death (relapsed AML cells; [1]) | other results |
| --- | --- | --- |
| CC[C@H](C)C(=O)O[C@H]1C[C@@H](C)C=C2C=C[C@H](C)[C@H](CC[C@@H]3C[C@@H](O)CC(=O)O3)[C@H]21 [LOVASTATIN] | 2 | IC50 (AML patient samples; patient sample AML 280, read-out: IC50 AML 280): > 10 µM; IC50 (AML patient samples; patient sample AML 285, read-out: IC50 AML 285): 3.81 µM; IC50 (AML patient samples; patient sample AML 290, read-out: IC50 AML 290): 4.41 µM; IC50 (AML patient samples; patient sample AML 297, read-out: IC50 AML 297): > 10 µM; IC50 (AML patient samples; patient sample AML 299, read-out: IC50 AML 299): > 10 µM; IC50 (AML patient samples; patient sample AML 307, read-out: IC50 AML 307): > 10 µM; IC50 (AML patient samples; patient sample AML 330, read-out: IC50 AML 330): > 10 µM; IC50 (AML patient samples; patient sample AML 339, read-out: IC50 AML 339): > 10 µM; IC50 (AML patient samples; patient sample AML 340, read-out: IC50 AML 340): 8.92 µM; IC50 (AML patient samples; patient sample AML 343, read-out: IC50 AML 343): > 10 µM |
| COc1cccc2c1C(=O)c1c(O)c3c(c(O)c1C2=O)C[C@@](O)(C(=O)CO)C[C@@H]3O[C@H]1C[C@H](N)[C@@H](O)[C@H](C)O1 [EPIRUBICIN] | 18 | – |
| N[C@@H](Cc1ccc(N(CCCl)CCCl)cc1)C(=O)O | 4 | – |
| COc1ccc(-c2ccc3ncc4c(c3c2)n(-c2ccc(N3CCNCC3)c(C(F)(F)F)c2)c(=O)n4C)cn1 [NVP-BGT226] | 8 | – |
| COCCn1c2c([n+](Cc3cnccn3)c1C)C(=O)c1ccccc1C2=O [YM-155] | 18 | – |
| CN(C)CC(=O)N1CCC(c2ccc(NC(=O)c3nc(C#N)c[nH]3)c(C3=CCCCC3)c2)CC1 [JNJ-28312141] | 7 | – |
| Cn1c(=O)c2c(ncn2CC2OCCO2)n(C)c1=O [DOXOFYLLINE] | 1 | – |
| Oc1c(Cl)cc(Cl)c2cccnc12 [CHLOROXINE] | 1 | – |
| COc1cccc(-c2cc(F)ccc2[C@H]2Cc3nc(N)nc(C)c3C(=O)N2)n1 [HSP-990] | 17 | – |
| Cc1[nH]c2ccccc2c1CCNCc1ccc(/C=C/C(=O)NO)cc1 [PANOBINOSTAT] | 1 | – |
| CC(=O)OCC(=O)[C@@]12OC3(CCCC3)O[C@@H]1C[C@H]1[C@@H]3CCC4=CC(=O)C=C[C@]4(C)[C@@]3(F)[C@@H](O)C[C@@]12C [AMCINONIDE] | 1 | – |
| Clc1ccc(COC(Cn2ccnc2)c2ccc(Cl)cc2Cl)c(Cl)c1 (stereo not shown) [MICONAZOLE] | 1 | – |
| O=C1NCC2(CCN(CCc3ccccc3)CC2)O1 [FENSPIRIDE] | 3 | – |
| CCOc1cc2ncc(C#N)c(Nc3ccc(OCc4cccc(F)c4)c(Cl)c3)c2cc1NC(=O)/C=C/CN(C)C [HKI 357] | 4 | – |
| C[C@]12CC[C@@H]3c4ccc(O)cc4CC[C@H]3[C@@H]1CC[C@@H]2OC(=O)CCC1CCCC1 [ESTRADIOL CYPIONATE] | 2 | – |
| Cc1ncc2c(c1O)COC2c1ccc(Cl)cc1 (stereo not shown) [CICLETANINE] | 4 | – |
| CCN1CCN(Cc2ccc(-c3cc4c(N[C@H](C)c5ccccc5)ncnc4[nH]3)cc2)CC1 [AEE-788] | 13 | – |
| CN1CCCC(n2nc(Cc3ccc(Cl)cc3)c3ccccc3c2=O)CC1 (stereo not shown) [AZELASTINE] | 2 | – |
| CCCOc1ccc(C(=O)OCCN(CC)CC)cc1N [PROPARACAINE] | 1 | – |
| CCOC(=O)C1=C(C)NC(C)=C(C(=O)OCC)C1c1ccccc1/C=C/C(=O)OC(C)(C)C [LACIDIPINE] | 2 | – |
| CCn1cc(C(=O)O)c(=O)c2cnc(N3CCCC3)nc21 [PIROMIDIC ACID] | 5 | – |

| Structure (SMILES) | #Cases >70% cell death (relapsed AML cells; [1]) | other results |
| --- | --- | --- |
| Cc1ccc(C(=O)N(CCCN)[C@@H](c2oc3cc(Cl)ccc3c(=O)c2Cc2ccccc2)C(C)C)cc1 [SB743921] | 18 | – |
| Nc1nc(F)nc2c1ncn2[C@@H]1O[C@H](COP(=O)(O)O)[C@@H](O)[C@@H]1O [FLUDARABINE PHOSPHATE] | 4 | – |
| C[C@@H]1O[C@@H](O[C@@H]2C=C3CC[C@@H]4[C@H](CC[C@]5(C)[C@@H](c6ccc(=O)oc6)CC[C@]45O)[C@@]3(C)CC2)[C@H](O)[C@H](O)[C@H]1O [PROSCILLARIDIN] | 18 | – |
| Cc1ccc(C(=O)N(CCCN)[C@@H](c2nc3cc(Cl)ccc3c(=O)n2Cc2ccccc2)C(C)C)cc1 [ISPINESIB MESYLATE] | 2 | – |
| Nc1ccncc1 [4-AMINOPYRIDINE] | 1 | – |
| CCOC(=O)C1=C[C@]2(CC)CCCN3CCc4c(n1c1ccccc41)[C@@H]32 [VINPOCETINE] | 1 | – |
| CC[n+]1c(-c2ccccc2)c2cc(N)ccc2c2ccc(N)cc21 [HOMIDIUM BROMIDE] | 1 | – |
| CCN(CCCc1ccccc1)CCCc1ccccc1 [ALVERINE CITRATE] | 4 | – |
| CCN(CC)CCNc1ccc(CO)c2sc3ccccc3c(=O)c12 [HYCANTHONE] | 9 | – |
| Cc1nc2ccccc2n1Cc1ccc(Cl)cc1 [CHLORMIDAZOLE] | 1 | – |
| CN(C(=O)CN(CCO)CC(=O)N(C)C(C)(C)Cc1ccccc1)C(C)(C)Cc1ccccc1 [OXETHAZAINE] | 1 | – |
| S=c1nc[nH]c2nc[nH]c12 [MERCAPTOPURINE] | 10 | – |
| CC(C)c1cc(C(C)C)c(-c2csc(N(CCN(C)C)Cc3cccnc3)n2)c(C(C)C)c1 [FOROPAFANT] | 6 | – |
| Cc1nc2ccc(CN(C)c3ccc(C(=O)N[C@@H](CCC(=O)O)C(=O)O)s3)cc2c(=O)[nH]1 [RALTITREXED] | 3 | – |
| CC1=C(C(=O)OC(C)C)C(c2cccc([N+](=O)[O-])c2)C(C(=O)OC2CN(C(c3ccccc3)c3ccccc3)C2)=C(N)N1 (stereo not shown) [AZELNIDIPINE] | 5 | – |
| C#C[C@]1(O)CC[C@H]2[C@@H]3[C@H](C)CC4=C(CCC(=O)C4)[C@H]3CC[C@@]21C [TIBOLONE] | 1 | – |
| NC[C@H]1O[C@H](O[C@H]2[C@H](O)[C@@H](O[C@H]3O[C@H](CO)[C@@H](O)[C@H](N)[C@H]3O)[C@H](N)C[C@@H]2N)[C@H](N)C[C@@H]1O [TOBRAMYCIN] | 1 | – |
| COCCOC(=O)C1=C(C)NC(C)=C(C(=O)OC/C=C/c2ccccc2)C1c1cccc([N+](=O)[O-])c1 (stereo not shown) [CILNIDIPINE] | 1 | – |
| CCCCCCCCCCCCCCCC[n+]1ccccc1 | – | #Cases >70% cell death (relapsed AML cells): 18 |
| CN(c1ncccc1CNc1nc(Nc2ccc3c(c2)CC(=O)N3)ncc1C(F)(F)F)S(C)(=O)=O [PF-562271] | 18 | – |
| CCCCCCc1ccc(O)cc1O.Nc1c2ccccc2nc2ccccc12 [ACRISORCIN] | 18 | – |
